Reference: ChEMBL document CHEMBL6127037, “Design, synthesis, and biological evaluation of imidazolylacetophenone oxime derivatives as novel brain-penetrant agents for Alzheimer's disease treatment” (Eur J Med Chem, 2024)
Active and inactive are the calls of the source. The rule behind the calls is not given here.

Assays:
BV-2 [1] = experiment: Anti-neuroinflammatory activity against LPS-stimulated mouse BV-2 cells assessed as inhibition of NO production at 1 uM; type: functional; parameters: scale not given: the % may be the effect or the level left
[2] = Cytotoxicity against LPS stimulated mouse BV-2 cells assessed as cell survival at 10 uM by MTT assay; type: toxicity, cell-based; details: LPS-stimulated BV-2 cells, read-out: Activity
BV-2 [3] = experiment: Anti-neuroinflammatory activity against LPS-stimulated mouse BV-2 cells assessed as inhibition of NO production at 10 uM; type: functional; parameters: scale not given: the % may be the effect or the level left
PC12 = experiment: Neuroprotective activity against 6-OHDA induced oxidative damage in […] cells assessed as increase in cell viability preincubated for 4 hrs followed by 6-OHDA stimulation and measured after 24 hrs by MTT assay (reference value: 48.6%); type: functional, cell-based; details: Rattus norvegicus, dose 1-10 µM, time 28.0 hrs
[4] = Cytotoxicity against […] cells assessed as cell survival at 20 uM by MTT assay; type: toxicity, cell-based, Rattus norvegicus; details: read-out: Survival
BV-2 [5] = experiment: Anti-neuroinflammatory activity against LPS-stimulated mouse BV-2 cells assessed as inhibition of NO production; type: functional, cell-based
HT-22 = experiment: Neuroprotective activity against RSL3 induced ferroptosis in mouse HT-22 cells assessed as increase in cell viability at 10 uM preincubated for 4 hrs followed by RSL3 stimulation and measured after 24 hrs by MTT assay (reference value: 52.1%); type: functional; details: time 28 hrs
[6] = biological target: Amyloid-beta precursor protein (Homo sapiens) (UniProt P05067); experiment: Inhibition of self-induced amyloid beta (1 to 42 residues) (unknown origin) aggregation at 5 to 20 uM by thioflavin T based fluorescence analysis; details: dose 5-20 µM
[7] = Cytotoxicity against mouse HT-22 cells assessed as cell survival at 20 uM by MTT assay; type: toxicity, cell-based; details: read-out: Survival
[8] = biological target: Acetylcholinesterase (Electrophorus electricus) (UniProt O42275); experiment: Inhibition of electric eel AChE at 20 uM using […] as substrate pretreated for 20 mins prior to DTNB addition for 30 mins followed by substrate addition and measured after 45 mins by Ellman's method relative to control; details: time 95.0 min
[9] = biological target: Amyloid-beta precursor protein (Homo sapiens) (UniProt P05067); experiment: Inhibition of self-induced amyloid beta (1 to 42 residues) (unknown origin) aggregation at 20 uM by thioflavin T based fluorescence analysis
BV-2 [10] = experiment: Antiinflammatory activity against LPS induced mouse BV-2 cells assessed as decrease in PGE2 expression incubated for 24 hrs by ELISA; type: functional, cell-based; details: dose 0.1-2.5 µM
BV-2 [11] = experiment: Antiinflammatory activity against LPS induced mouse BV-2 cells assessed as decrease in COX2 expression incubated for 24 hrs by Western blotting analysis; type: functional, cell-based; details: dose 0.1-2.5 µM
BV-2 [12] = experiment: Antiinflammatory activity against LPS induced mouse BV-2 cells assessed as decrease in TNFalpha expression incubated for 24 hrs by ELISA; type: functional, cell-based; details: dose 0.1-2.5 µM
BV-2 [13] = experiment: Antiinflammatory activity against LPS induced mouse BV-2 cells assessed as increase in IL-10 expression at 0.5 to 2.5 uM incubated for 24 hrs by ELISA; type: functional, cell-based; details: dose 0.5-2.5 µM
BV-2 [14] = experiment: Antiinflammatory activity against LPS induced mouse BV-2 cells assessed as decrease in iNOS expression incubated for 24 hrs by Western blotting analysis; type: functional, cell-based; details: dose 0.1-2.5 µM
BV-2 [15] = experiment: Antiinflammatory activity against LPS induced mouse BV-2 cells assessed as increase in arginase-1 expression at 0.5 to 2.5 uM incubated for 24 hrs by ELISA; type: functional, cell-based; details: dose 0.5-2.5 µM
[16] = Drug distribution in ICR mouse lung measured at 60 mins by micro-PET/CT imaging analysis; type: ADME, tissue-based; details: in vivo, 1 h
[17] = Drug distribution in ICR mouse brain measured at 60 mins by micro-PET/CT imaging analysis; type: ADME, tissue-based; details: in vivo, 1 h
[18] = Drug distribution in ICR mouse kidney measured at 5.5 mins by micro-PET/CT imaging analysis; type: ADME, tissue-based; details: in vivo
[19] = Drug distribution in ICR mouse lung measured at 1.25 mins by micro-PET/CT imaging analysis; type: ADME, tissue-based; details: in vivo, 75 s
[20] = Drug distribution in ICR mouse liver measured at 60 mins by micro-PET/CT imaging analysis; type: ADME, tissue-based; details: in vivo, 1 h
[21] = Drug distribution in ICR mouse brain measured after 4 to 5 mins by micro-PET/CT imaging analysis; type: ADME, tissue-based; details: in vivo, time 4-5 min
[22] = Drug distribution in ICR mouse muscle measured at 1.25 to 57.5 mins by micro-PET/CT imaging analysis; type: ADME, tissue-based, Muscle tissue; details: in vivo, time 1.25-57.5 min
[23] = Drug distribution in ICR mouse brain measured at 1.25 mins by micro-PET/CT imaging analysis; type: ADME, tissue-based; details: in vivo, 75 s
[24] = Drug distribution in ICR mouse liver measured at 1.25 mins by micro-PET/CT imaging analysis; type: ADME, tissue-based; details: in vivo, 75 s
[25] = Drug distribution in ICR mouse brain measured at 1 mins by micro-PET/CT imaging analysis; type: ADME, tissue-based; details: in vivo
[26] = Drug distribution in ICR mouse kidney measured at 60 mins by micro-PET/CT imaging analysis; type: ADME, tissue-based; details: in vivo, 1 h
[27] = Drug distribution in ICR mouse bone measured at 1.25 to 57.5 mins by micro-PET/CT imaging analysis; type: ADME, tissue-based, Bone element; details: in vivo, time 1.25-57.5 min
[28] = Drug distribution in ICR mouse heart measured at 1.25 mins by micro-PET/CT imaging analysis; type: ADME, tissue-based; details: in vivo, 75 s
[29] = Drug distribution in ICR mouse heart measured at 60 mins by micro-PET/CT imaging analysis; type: ADME, tissue-based; details: in vivo, 1 h
[30] = Drug distribution in ICR mouse kidney measured at 1.25 mins by micro-PET/CT imaging analysis; type: ADME, tissue-based; details: in vivo, 75 s

Sequence of Amyloid-beta precursor protein (Homo sapiens) (P05067 whole entry, the tested form may be a part): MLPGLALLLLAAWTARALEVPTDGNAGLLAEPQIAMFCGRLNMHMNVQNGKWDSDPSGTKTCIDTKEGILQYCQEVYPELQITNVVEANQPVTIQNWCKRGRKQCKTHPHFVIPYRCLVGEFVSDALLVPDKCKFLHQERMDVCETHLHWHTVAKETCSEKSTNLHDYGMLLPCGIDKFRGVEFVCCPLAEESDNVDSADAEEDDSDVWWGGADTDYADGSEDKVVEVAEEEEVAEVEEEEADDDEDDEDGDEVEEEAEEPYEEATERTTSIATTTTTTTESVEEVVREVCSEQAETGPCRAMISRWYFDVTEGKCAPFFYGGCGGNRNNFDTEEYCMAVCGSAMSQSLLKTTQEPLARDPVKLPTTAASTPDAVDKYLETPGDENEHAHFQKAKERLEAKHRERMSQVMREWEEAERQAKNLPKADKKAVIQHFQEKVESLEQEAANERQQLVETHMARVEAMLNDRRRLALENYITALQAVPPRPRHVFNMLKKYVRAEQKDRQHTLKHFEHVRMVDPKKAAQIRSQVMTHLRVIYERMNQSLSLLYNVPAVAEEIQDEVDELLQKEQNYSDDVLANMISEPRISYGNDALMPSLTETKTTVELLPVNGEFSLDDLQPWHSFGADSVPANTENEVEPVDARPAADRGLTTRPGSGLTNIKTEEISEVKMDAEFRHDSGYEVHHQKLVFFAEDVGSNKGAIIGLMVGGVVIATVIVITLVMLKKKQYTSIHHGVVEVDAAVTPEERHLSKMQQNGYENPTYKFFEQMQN
Sequence of Acetylcholinesterase (Electrophorus electricus) (O42275 24-633 limits assumed): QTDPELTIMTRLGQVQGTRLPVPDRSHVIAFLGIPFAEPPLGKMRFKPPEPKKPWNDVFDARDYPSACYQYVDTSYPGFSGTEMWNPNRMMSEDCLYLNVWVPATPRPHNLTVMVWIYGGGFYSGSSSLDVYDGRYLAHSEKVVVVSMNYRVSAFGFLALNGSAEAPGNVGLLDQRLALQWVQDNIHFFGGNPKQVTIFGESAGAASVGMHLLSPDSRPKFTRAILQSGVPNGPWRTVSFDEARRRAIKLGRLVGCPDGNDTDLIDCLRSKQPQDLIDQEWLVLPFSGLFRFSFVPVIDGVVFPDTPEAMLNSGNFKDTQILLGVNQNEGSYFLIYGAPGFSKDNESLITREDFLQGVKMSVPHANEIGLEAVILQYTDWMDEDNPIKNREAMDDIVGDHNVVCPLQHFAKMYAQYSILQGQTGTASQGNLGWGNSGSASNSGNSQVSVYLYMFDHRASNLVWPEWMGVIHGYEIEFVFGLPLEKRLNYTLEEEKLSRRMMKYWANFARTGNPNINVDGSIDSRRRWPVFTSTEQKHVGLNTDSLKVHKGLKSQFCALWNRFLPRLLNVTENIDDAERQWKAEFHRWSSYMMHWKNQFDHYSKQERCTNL

SMILES | Activity (BV-2 [1]) | viability at 10 µM [2] | Activity (BV-2 [3]) | other results
COC(Cn1ccnc1)c1ccc2c(c1)OCO2 (racemic) | 17.9% | 76.1% | 28% | 
O=C(Cn1ccnc1)c1ccc2c(c1)OCO2 | 21.5% | 97.9% | 61.6% | 
OC(Cn1ccnc1)c1ccc2c(c1)OCO2 (racemic) | 21.4% | 97.1% | 68.9% | 
C=C(C)CO/N=C(\Cn1ccnc1)c1ccc(N(C)C)cc1 | 28.1% | 98.6% | 46.3% | 
C#CCO/N=C(\Cn1ccnc1)c1ccc(C(=O)NO)cc1 | 36.2% | 109% | 70.5% | Activity (PC12): Dose-Dependent Effect; viability at 20 µM [4]: > 95%; EC50 (BV-2 [5]): 5.61 µM
c1cn(CCc2ccc3c(c2)OCO3)cn1 | 19.6% | 93.3% | 47.9% | 
CN(C)c1ccc(/C(Cn2ccnc2)=N/OC(=O)CCc2ccccc2)cc1 | 31.5% | 92.5% | 31.4% | 
COC(=O)CCCCCO/N=C(\Cn1ccnc1)c1ccc2c(c1)OCO2 | 35.4% | 116% | 76% | 
CN(C)c1ccc(/C(Cn2ccnc2)=N/OC(=O)/C=C/c2ccccc2)cc1 | 39.2% | 92.8% | 41.8% | 
O=C(CCCCCO/N=C(\Cn1ccnc1)c1ccc2c(c1)OCO2)NO | 42.7% | 111% | 82.9% | Activity (HT-22): 66.7%; Activity (PC12): Dose-Dependent Effect; viability at 20 µM [4]: > 95%; inhibition [6]: Active; viability at 20 µM [7]: > 90%; EC50 (BV-2 [5]): 1.09 µM
CN(C)c1ccc(/C(Cn2ccnc2)=N/OC(=O)/C=C/c2ccc(Cl)cc2)cc1 | 41.2% | 85.6% | 54.1% | 
O=C(CCCC[C@@H]1CCSS1)O/N=C(\Cn1ccnc1)c1ccc2c(c1)OCO2 | 51.8% | 97.5% | 99.7% | Activity (HT-22): 67.7%; Activity (PC12): Dose-Dependent Effect; viability at 20 µM [4]: > 95%; viability at 20 µM [7]: > 90%; inhibition [8]: 54.9%; inhibition [9]: inactive; EC50 (BV-2 [5]): 0.76 µM
FCCO/N=C(\Cn1ccnc1)c1ccc2c(c1)OCO2 | 69.5% | 116% | 99.4% | Activity (HT-22): 66.6%; Activity (BV-2 [10]): Dose-Dependent Effect; Activity (PC12): Dose-Dependent Effect; viability at 20 µM [4]: > 95%; Activity (BV-2 [11]): Dose-Dependent Effect; inhibition [6]: Active; viability at 20 µM [7]: > 90%; Activity (BV-2 [12]): Dose-Dependent Effect; inhibition [8]: 60.1%; EC50 (BV-2 [5]): 0.49 µM; Activity (BV-2 [13]): Active; Activity (BV-2 [14]): Dose-Dependent Effect; Activity (BV-2 [15]): Active
COc1ccc(/C=C/C(=O)O/N=C(\Cn2ccnc2)c2ccc3c(c2)OCO3)cc1 | 45.6% | 95.9% | 91.3% | 
[18F]CCO/N=C(\Cn1ccnc1)c1ccc2c(c1)OCO2 |  |  |  | Drug uptake [16]: Not Active; Drug uptake [17]: Not Active; Drug uptake [18]: Active; Drug uptake [19]: 5.2 %ID/cc; Drug uptake [20]: Not Active; Drug uptake [21]: Not Active; Drug uptake [22]: Active; Drug uptake [23]: 7.4 %ID/cc; Drug uptake [24]: 18.1 %ID/cc; Drug uptake [25]: Active; Drug uptake [26]: Not Active; Drug uptake [27]: Active; Drug uptake [28]: 5 %ID/cc; Drug uptake [29]: Not Active; Drug uptake [30]: 3.8 %ID/cc
O=C(O/N=C(\Cn1ccnc1)c1ccc2c(c1)OCO2)C12CC3CC(CC(C3)C1)C2 | 44.1% | 113% | 88.4% | 
